From the NIST ThermoML archive (doi:10.1016/j.jct.2007.02.004)

Tests used:
[1] = refractive index (Na D-line) (dimensionless); conditions: 293.15 K; 101.33 kPa; Liquid; Standard Abbe refractometry
[2] = 293.15 K; 101.33 kPa; Liquid
[3] = xn = mol fraction of the nth substance listed; conditions: 101 kPa, Liquid

CCCCCCO [hexan-1-ol]
Conditions	mass density [kg/m3]	refractive index
[1]	–	1.4178
[2]	818.84	–

CCOC(=O)OCC [diethyl carbonate] + CCCCCCO
mass density [kg/m3], [3]
Conditions	293.15 K	303.15 K	313.15 K	323.15 K
x1 = 0.0502	825.96	818.55	811.04	803.29
x1 = 0.1123	834.86	827.16	819.37	811.3
x1 = 0.1499	840.29	832.48	824.54	816.2
x1 = 0.2103	849.1	841.04	832.78	824.2
x1 = 0.2508	855.05	846.79	838.35	829.57
x1 = 0.3121	864.19	855.69	846.97	837.88
x1 = 0.3576	871.02	862.23	853.42	844.05
x1 = 0.4113	879.15	870.21	861.12	851.48
x1 = 0.4632	887.08	877.88	868.59	858.73
x1 = 0.5111	894.51	885.13	875.61	865.59
x1 = 0.552	900.88	891.35	881.55	871.51
x1 = 0.6008	908.59	898.87	888.91	878.65
x1 = 0.6498	916.39	906.42	896.35	885.85
x1 = 0.7108	926.19	915.93	905.65	894.96
x1 = 0.7554	933.45	923.08	912.55	901.77
x1 = 0.8112	942.65	932.03	921.16	910.41
x1 = 0.8501	949.13	938.29	927.49	916.42
x1 = 0.9002	957.5	946.57	935.57	924.3
x1 = 0.9555	966.89	955.77	944.49	933.24

CC(=O)c1ccccc1 [acetophenone] + CCOC(=O)OCC
mass density [kg/m3], [3]
Conditions	293.15 K	303.15 K	313.15 K	323.15 K
x2 = 0.0511	1025.44	1016.4	1007.58	998.79
x2 = 0.1014	1023.08	1014.09	1005.19	996.27
x2 = 0.1501	1020.74	1011.77	1002.73	993.68
x2 = 0.1996	1018.43	1009.35	1000.2	991.08
x2 = 0.2465	1016.19	1007.04	997.78	988.56
x2 = 0.3041	1013.28	1004.02	994.63	985.24
x2 = 0.3467	1011.14	1001.78	992.31	982.8
x2 = 0.4001	1008.46	998.99	989.35	979.74
x2 = 0.4507	1005.87	996.27	986.55	976.77
x2 = 0.4888	1003.88	994.18	984.35	974.49
x2 = 0.5506	1000.64	990.73	980.71	970.76
x2 = 0.6038	997.77	987.73	977.48	967.47
x2 = 0.6498	995.25	985.06	974.69	964.54
x2 = 0.7104	991.92	981.54	971.04	960.63
x2 = 0.7513	989.53	979.05	968.47	957.86
x2 = 0.8078	986.29	975.68	964.89	954.13
x2 = 0.8522	983.66	972.91	961.99	951.07
x2 = 0.8993	980.83	969.91	958.99	947.76
x2 = 0.9488	977.82	966.78	955.63	944.32

CC(=O)c1ccccc1 [acetophenone] + CCCCCCO
mass density [kg/m3], [3]
Conditions	293.15 K	303.15 K	313.15 K	323.15 K
x1 = 0.0498	828.67	821.42	813.97	806.47
x1 = 0.1009	838.84	831.49	823.85	816.28
x1 = 0.1517	848.99	841.56	833.75	826.11
x1 = 0.2106	860.83	853.32	845.32	837.59
x1 = 0.2474	868.27	860.71	852.58	844.8
x1 = 0.3028	879.54	871.9	863.61	855.74
x1 = 0.3426	887.68	879.99	871.57	863.65
x1 = 0.3978	899.04	891.28	882.7	874.71
x1 = 0.4512	910.1	902.26	893.55	885.48
x1 = 0.4985	919.95	912.05	903.23	895.1
x1 = 0.5526	931.29	923.31	914.38	906.19
x1 = 0.6071	942.79	934.73	925.7	917.44
x1 = 0.6491	951.7	943.59	934.49	926.17
x1 = 0.7101	964.72	956.53	947.35	938.95
x1 = 0.7485	972.96	964.73	955.5	947.06
x1 = 0.8019	984.49	976.21	966.9	958.4
x1 = 0.8521	995.4	987.06	977.72	969.16
x1 = 0.9045	1006.85	998.46	989.09	980.48
x1 = 0.9554	1018.05	1009.61	1000.23	991.56

CC(=O)c1ccccc1 [acetophenone]
Conditions	mass density [kg/m3]	refractive index
[1]	–	1.5336
[2]	1027.93	–

CCOC(=O)OCC [diethyl carbonate]
Conditions	mass density [kg/m3]	refractive index
[1]	–	1.3845
[2]	974.65	–
